# Source: US20260285857A1, “BICYCLIC AND HETEROCYCLIC AMIDE COMPOUNDS” (priority 2024, published 2026)
# System: immunoglobulin light chain protein WIL-FL T46L
# Assay: Differential scanning fluorimetry (thermal shift) assay
# Type: binding
# Conditions: Table B; temperature shift [Tm]compound-[Tm]vehicle; recombinant WIL-FL T46L
row,SMILES,DSF
1,"Cc1cc(N2CC[C@](C)(c3ccccc3)C2)cn2nc(C(=O)N3C[C@H](O)[C@@]4(CCN(c5cccc(C(=O)O)n5)C4)C3)nc12 [Compound 703, Mis6-[4-hydroxy-2-[8-methyl-6-[(3R)-3-methyl-3-phenyl-pyrrolidin-1-yl]-[1,2,4]triazolo[1,5-a]pyridine-2-carbonyl]-2,7-diazaspiro[4.4]nonan-7-yl]pyridine-2-carboxylic acid]",***** (>2.5° C.=*****)
2,"Cc1cc(N2CC[C@](C)(c3ccccc3)C2)cn2nc(C(=O)N3CC[C@H]4[C@@H]3CC(=O)N4c3cccc(C(=O)O)n3)nc12 [Compound 704, 6-((3aS,6aS)-4-(8-methyl-6-((R)-3-methyl-3-phenylpyrrolidin-1-yl)-[1,2,4]triazolo[1,5-a]pyridine-2-carbonyl)-2-oxohexahydropyrrolo[3,2-b]pyrrol-1(2H)-yl)picolinic acid]",***** (>2.5° C.=*****)
3,"COC(C)(CC(=O)N1CC[C@@]2(CCN(C(=O)c3nc4c(C)cc(N5CC[C@](C)(c6ccccc6)C5)cn4n3)C2)C1)C(=O)O (stereo partly drawn) [Compound 706, 2-methoxy-2-methyl-4-[(5R)-2-[8-methyl-6-[(3R)-3-methyl-3-phenyl-pyrrolidin-1-yl]-[1,2,4]triazolo[1,5-a]pyridine-2-carbonyl]-2,7-diazaspiro[4.4]nonan-7-yl]-4-oxo-butanoic acid]",***** (>2.5° C.=*****)
4,"Cc1cc(N2CC[C@](C)(c3ccccc3)C2)cn2nc(C(=O)N3CC[C@@]4(CCN(C(=O)CC(C)(C)C(=O)O)C4)C3)nc12 [Compound 707, 2,2-dimethyl-4-[(5R)-2-[8-methyl-6-[(3R)-3-methyl-3-phenyl-pyrrolidin-1-yl]-[1,2,4]triazolo[1,5-a]pyridine-2-carbonyl]-2,7-diazaspiro[4.4]nonan-7-yl]-4-oxo-butanoic acid]",***** (>2.5° C.=*****)
5,"Cc1cc(N2CC[C@](C)(c3ccccc3)C2)cn2nc(C(=O)N3CC[C@@]4(CCN(C(=O)[C@@H]5CC[C@H](C(=O)O)C5)C4)C3)nc12 [Compound 708, (1S,3R)-3-[(5R)-7-[8-methyl-6-[(3R)-3-methyl-3-phenyl-pyrrolidin-1-yl]-[1,2,4]triazolo[1,5-a]pyridine-2-carbonyl]-2,7-diazaspiro[4.4]nonane-2-carbonyl]cyclopentanecarboxylic acid]",***** (>2.5° C.=*****)
6,Cc1cc(N2CC[C@](C)(c3ccccc3)C2)cn2nc(C(=O)N3CC[C@@]4(CCN(C(=O)C5CC(C)(C(=O)O)C5)C4)C3)nc12 (stereo partly drawn) [Compound 709],***** (>2.5° C.=*****)
7,Cc1ccc(N2CC[C@@]3(CCN(C(=O)c4nc5c(C)cc(N6CC[C@](C)(c7ccccc7)C6)cn5n4)C3)C2)nc1C(=O)O [Compound 710],***** (>2.5° C.=*****)
8,Cc1cc(N2CC[C@](C)(c3ccccc3)C2)cn2nc(C(=O)N3CC[C@@]4(CCN(c5ccc(F)c(C(=O)O)n5)C4)C3)nc12 [Compound 711],***** (>2.5° C.=*****)
9,Cc1cc(N2CC[C@](C)(c3ccccc3)C2)cn2nc(C(=O)N3CC[C@@]4(CCN(C(=O)C56CC(C(=O)O)(C5)C6)C4)C3)nc12 [Compound 712],***** (>2.5° C.=*****)
10,Cc1cc(N2CC[C@](C)(c3ccccc3)C2)cn2nc(C(=O)N3CC[C@@]4(CCN(C(=O)C56CCC(C(=O)O)(C5)C6)C4)C3)nc12 [Compound 713],***** (>2.5° C.=*****)
11,Cc1cc(N2CC[C@](C)(c3ccccc3)C2)cn2nc(C(=O)N3CC[C@@]4(CCN(c5cc(C(=O)O)ccn5)C4)C3)nc12 [Compound 714],***** (>2.5° C.=*****)
12,Cc1cc(N2CC[C@](C)(c3ccccc3)C2)cn2nc(C(=O)N3CC[C@@]4(CCN(C(=O)c5cccc(C(=O)O)n5)C4)C3)nc12 [Compound 715],***** (>2.5° C.=*****)
13,Cc1cc(N2CC[C@](C)(c3ccccc3)C2)cn2nc(C(=O)N3CCC4(CCN(c5nccc(C(=O)O)n5)C4)C3)nc12 (stereo partly drawn) [Compound 716],***** (>2.5° C.=*****)
14,Cc1cc(N2CC[C@](C)(c3ccccc3)C2)cn2nc(C(=O)N3CCC4(CCN(c5cncc(C(=O)O)c5)C4)C3)nc12 (stereo partly drawn) [Compound 717],***** (>2.5° C.=*****)
15,COc1ncc(N2CC[C@@]3(CCN(C(=O)c4nc5c(C)cc(N6CC[C@](C)(c7ccccc7)C6)cn5n4)C3)C2)cc1C(=O)O [Compound 718],***** (>2.5° C.=*****)
16,COc1cc(C(=O)O)cc(N2CC[C@@]3(CCN(C(=O)c4nc5c(C)cc(N6CC[C@](C)(c7ccccc7)C6)cn5n4)C3)C2)n1 [Compound 719],***** (>2.5° C.=*****)
17,Cc1cc(N2CC[C@](C)(c3ccccc3)C2)cn2nc(C(=O)N3CC[C@@]4(CCN(C5CCCC(C(=O)O)C5)C4)C3)nc12 (stereo partly drawn) [Compound 720],***** (>2.5° C.=*****)
18,Cc1cc(N2CC[C@](C)(c3ccccc3)C2)cn2nc(C(=O)N3CC[C@@]4(CCN(C(=O)CC(C)(C)O)C4)C3)nc12 [Compound 721],***** (>2.5° C.=*****)

row,SMILES,DSF
1,Cc1cc(N2CC[C@](C)(c3ccccc3)C2)cn2nc(C(=O)N3CCC4(CCC(N5CC(C(=O)O)C5)C4)C3)nc12 (stereo partly drawn) [Compound 722],***** (>2.5° C.=*****)
2,Cc1cc(N2CC[C@](C)(c3ccccc3)C2)cn2nc(C(=O)N3CCC4(CCN(c5nc(C(=O)O)ccc5C#N)C4)C3)nc12 (stereo partly drawn) [Compound 724],***** (>2.5° C.=*****)
3,Cc1cc(N2CC[C@](C)(c3ccccc3)C2)cn2nc(C(=O)N3CC[C@@]4(CCN(C5CC(C)(C(=O)O)C5)C4)C3)nc12 (stereo partly drawn) [Compound 725],***** (>2.5° C.=*****)
4,Cc1cc(N2CC[C@](C)(c3ccccc3)C2)cn2nc(C(=O)N3CC[C@@]4(CCN(C(=O)C56COC(C(=O)O)(C5)C6)C4)C3)nc12 [Compound 726],***** (>2.5° C.=*****)
5,"Cc1cc(C(=O)O)cc(N2CC[C@@]3(CCN(C(=O)c4nc5c(C)cc(N6CC[C@](C)(c7ccccc7)C6)cn5n4)C3)C2)n1 [Compound 729, 2-methyl-6-((R)-7-(8-methyl-6-((R)-3-methyl-3-phenylpyrrolidin-1-yl)-[1,2,4]triazolo[1,5-a]pyridine-2-carbonyl)-2,7-diazaspiro[4.4]nonan-2-yl)isonicotinic acid]",***** (>2.5° C.=*****)
6,"Cc1cc(N2CC[C@](C)(c3ccccc3)C2)cn2nc(C(=O)N3CCC4(CCN(c5cnnc(C(=O)O)c5)C4)C3)nc12 (stereo partly drawn) [Compound 730, 5-(7-(8-methyl-6-((R)-3-methyl-3-phenylpyrrolidin-1-yl)-[1,2,4]triazolo[1,5-a]pyridine-2-carbonyl)-2,7-diazaspiro[4.4]nonan-2-yl)pyridazine-3-carboxylic acid]",***** (>2.5° C.=*****)
7,"Cc1cc(N2CC[C@](C)(c3ccccc3)C2)cn2nc(C(=O)N3CC[C@@]4(CCN(C(=O)CC(C)(O)C(=O)O)C4)C3)nc12 (stereo partly drawn) [Compound 731, 2-hydroxy-2-methyl-4-[(5R)-2-[8-methyl-6-[(3R)-3-methyl-3-phenyl-pyrrolidin-1-yl]-[1,2,4]triazolo[1,5-a]pyridine-2-carbonyl]-2,7-diazaspiro[4.4]nonan-7-yl]-4-oxo-butanoic acid]",***** (>2.5° C.=*****)
8,Cc1cc(N2CC[C@](C)(c3ccccc3)C2)cn2nc(C(=O)N3CC[C@@]4(CCN(C(=O)C56CCC(C(=O)O)(CC5)OC6)C4)C3)nc12 [Compound 732],***** (>2.5° C.=*****)
9,"Cc1cc(N2CC[C@](C)(c3ccccc3)C2)cn2nc(C(=O)N3CC[C@@]4(CCN(C(=O)C56CCCC(C(=O)O)(C5)C6)C4)C3)nc12 [Compound 733, 5-((R)-7-(8-methyl-6-((R)-3-methyl-3-phenylpyrrolidin-1-yl)-[1,2,4]triazolo[1,5-a]pyridine-2-carbonyl)-2,7-diazaspiro[4.4]nonane-2-carbonyl)bicyclo[3.1.1]heptane-1-carboxylic acid]",***** (>2.5° C.=*****)
10,Cc1cc(N2CC[C@](C)(c3ccccc3)C2)cn2nc(C(=O)N3CC[C@@]4(CCN(C(=O)C5CC56CC(C(=O)O)C6)C4)C3)nc12 (stereo partly drawn) [Compound 734],***** (>2.5° C.=*****)
11,"Cc1cc(N2CCC(C)(n3ccc(C(F)F)n3)C2)cn2nc(C(=O)N3CC[C@@]4(CCN(c5cccc(C(=O)O)n5)C4)C3)nc12 (stereo partly drawn) [Compound 735, 6-[(5R)-2-[6-[3-[3-(difluoromethyl)pyrazol-1-yl]-3-methyl-pyrrolidin-1-yl]-8-methyl-[1,2,4]triazolo[1,5-a]pyridine-2-carbonyl]-2,7-diazaspiro[4.4]nonan-7-yl]pyridine-2-carboxylic acid]",**** (>1.5-2.5° C.=****)
12,"Cc1cc(N2CC3(CC[C@H]3c3cccc(F)c3)C2)cn2nc(C(=O)N3CC[C@@]4(CCN(c5cccc(C(=O)O)n5)C4)C3)nc12 [Compound 736, 6-[(5R)-2-[6-[(7S)-7-(3-fluorophenyl)-2-azaspiro[3.3]heptan-2-yl]-8-methyl-[1,2,4]triazolo[1,5-a]pyridine-2-carbonyl]-2,7-diazaspiro[4.4]nonan-7-yl]pyridine-2-carboxylic acid]",***** (>2.5° C.=*****)
13,Cc1cc(N2CC3(CCC3c3cccc(F)c3)C2)cn2nc(C(=O)N3CC[C@@]4(CCN(c5cccc(C(=O)O)n5)C4)C3)nc12 (stereo partly drawn) [Compound 737],***** (>2.5° C.=*****)
14,Cc1cc(N2CC3(CCC3c3cccc(F)c3)C2)cn2nc(C(=O)N3CC[C@@]4(CCN(c5cccc(C(=O)O)n5)C4)C3)nc12 (stereo partly drawn) [Compound 738],***** (>2.5° C.=*****)
15,Cc1cc(N2CC3(CCC3c3cccc(F)c3)C2)cn2nc(C(=O)N3C[C@@H]4CN(c5cccc(C(=O)O)n5)C[C@@H]4C3)nc12 (stereo partly drawn) [Compound 739],***** (>2.5° C.=*****)
16,Cc1cc(N2CC3(CCC3c3cccc(Cl)c3)C2)cn2nc(C(=O)N3CC[C@@]4(CCN(c5cccc(C(=O)O)n5)C4)C3)nc12 (stereo partly drawn) [Compound 740],**** (>1.5-2.5° C.=****)
17,Cc1cc(N2CC[C@@](C)(n3ccc(C(F)(F)F)n3)C2)cn2nc(C(=O)N3CC[C@@]4(CCN(c5cccc(C(=O)O)n5)C4)C3)nc12 [Compound 741],***** (>2.5° C.=*****)
18,Cc1cc(N2CC[C@](C)(n3ccc(C(F)(F)F)n3)C2)cn2nc(C(=O)N3CC[C@@]4(CCN(c5cccc(C(=O)O)n5)C4)C3)nc12 [Compound 742],***** (>2.5° C.=*****)
